Assay results as given in article PMC12797170, “Potent Competitive Inhibitors of Ecto-5′-nucleotidase (CD73) based on 6‑(Het)aryl-7-deazapurine Ribonucleoside 5′‑O‑Bisphosphonates” (ACS Pharmacology & Translational Science, 2025).
Values after ≈ are worked out from the molar mass of the structure shown.

How the values were obtained:
[1] = Plasma protein binding, equilibrium dialysis, human plasma; type: in vitro ADME; details: undiluted plasma, human plasma protein binding, read-out: PPB (hu) (converted)
[2] = Plasma protein binding, mouse plasma; type: in vitro ADME; details: mouse, plasma
[3] = Kinetic solubility in PBS; type: physicochemical; details: phosphate-buffered saline, pH 7.4, aqueous buffer, kinetic from dmso stock
Summary of the method: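 DMSO stocks diluted into PBS pH 7.4 to 100 μM and shaken 2 h at room temperature in duplicate, then filtered by centrifugation. Filtrates diluted 1:99 in 50% acetonitrile. Quantified by Echo-MS against calibration standards spanning 0.05–4 μM.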

[4] = Microsomal stability assay, human liver microsomes; type: in vitro ADME
[5] = Microsomal stability assay, mouse liver microsomes; type: in vitro ADME
[6] = test system: CD8+ T cells; experiment: CD8+ T cell activation assay (CD25, IFN-γ, granzyme B); type: cell-based, human; details: 500 nM, separate CD8+ T-cell activation assays
Experimental: 6 CD73 inhibition partially reverses the immunosuppressive effect of adenosine generated from AMP in CD8 ^ + T cells. CD8^+ T cells were activated using CD3/CD28 activation beads in the presence of 2.5 μM EHNA, with or without 1 mM AMP and CD73 inhibitors (500 nM or 50 nM). A. CD25 expression. The percentage of CD8^+ T cells expressing the activation marker CD25 was measured by flow cytometry 60 h after activation. Data represent technical triplicates. B. Cytokine secretion. Granzyme B and IFN-γ levels in the culture supernatant were quantified by ELISA 60 h after activation. The data represent technical duplicates from two independently treated wells.
Peripheral blood was obtained from healthy donors at the Military University Hospital Prague, following informed consent. CD8+ T cells were enriched using the RosetteSep Human CD8+ T Cell Enrichment Cocktail ([…] Technologies) according to the manufacturer’s instructions and subsequently isolated by density gradient centrifugation using SepMate tubes ([…] Technologies). Residual red blood cells were lysed using a red blood cell lysis buffer (155 mM NH4Cl, 12 mM NaHCO3, 0.1 mM EDTA, pH = 7.1–7.4). The isolated CD8+ T cells were resuspended in complete RPMI and counted using an automated cell counter.
CD8+ T cells were seeded at 5 × 10^4 cells/well in 50 μL of complete RPMI in a flat-bottom 96-well plate. […] This was followed by the addition of 10 μL of a CD73 inhibitor at either 5 μM or 500 nM (experimental wells) or 10 μL of complete RPMI (control wells). Subsequently, 20 μL of 5 mM AMP was added to all wells except those serving as controls for maximal T cell activation. […]
Following incubation, supernatants were collected for quantification of IFN-γ and granzyme B using ELISA. […] Finally, stained cells were washed and analyzed using a BD LSRFortessa flow cytometer. Data were processed and analyzed using FlowJo software (version 10.8.1) and GraphPad Prism 10.
Secretion of IFN-γ and granzyme B was quantified using Human IFN-γ DuoSet ELISA and Human Granzyme B DuoSet ELISA (R&D Systems) according to the manufacturer’s instructions. […]

[7] = AB680 literature row of Table 4; cited from earlier work
[8] = in vitro; details: human, plasma
[9] = in vitro; details: mouse, plasma

- fraction unbound at 4 h, 100 µM [1]: ≤ 0.01
- fraction unbound at 4 h, 100 µM ([2]; Tables 2 and 4, mouse plasma, read-out: fup, fraction unbound in mouse plasma): 0.1
- fraction unbound at 4 h, 100 µM ([2]; mouse plasma protein binding, read-out: PPB (m) (converted)): 0.098
- solubility at 2 h [3]: 76 µM (≈ 44.1 µg/mL)
- Mics (hu) comp remaining 60 min ([4]; 10 μM): 118%
- microsomal CLint at 10 µM ([4]; pooled liver microsomes, pH 7.4, read-out: Mics (hu) CLint): < 2 µL/min/mg
- Mics (m) comp remaining 60 min ([5]; 10 μM): 117%
- microsomal CLint at 10 µM ([5]; pooled liver microsomes, pH 7.4, read-out: Mics (m) CLint): < 2 µL/min/mg
- half-life at 10 µM [8]: > 2 h
- half-life at 10 µM [9]: > 2 h
SMILES: C[C@H](Nc1cc(Cl)nc2c1cnn2[C@@H]1O[C@H](COP(=O)(O)CP(=O)(O)O)[C@@H](O)[C@H]1O)c1ccccc1F [AB680, quemliclustat, reference compound]
- median increase in CD25 expression [6]: 41%
- fup, fraction unbound in mouse plasma [7]: 0.89
